Data taken from article PMC6230386, “Gossypol from Cottonseeds Ameliorates Glucose Uptake by Mimicking Insulin Signaling and Improves Glucose Homeostasis in Mice with Streptozotocin-Induced Diabetes” (Oxidative Medicine and Cellular Longevity, 2018).

Target: α-glucosidase
Test: pNPG hydrolysis at […] nm; Lineweaver-Burk kinetics
Assay type: biochemical, Saccharomyces cerevisiae

## Cc1cc2c(C(C)C)c(O)c(O)c(C=O)c2c(O)c1-c1c(C)cc2c(C(C)C)c(O)c(O)c(C=O)c2c1O [GSP, gossypol]
  IC50: 670 ± 440 nM
